SMILES | melting point [°C]
CC1=C(C(=O)N(C)C)C(c2ccccc2)C(C(N)=O)=C(N)N1 (stereo not drawn) | 236
COc1cc(NC(=O)Nc2ccc(C3=CCN(C(=O)Nc4ccc(OCC(O)CO)cc4Cl)CC3)cc2)cc(OC)c1 (stereo not drawn) | 108 to 111
OC1CSC(Oc2cccc(-c3cncc(F)c3)c2)C(O)C1O (stereo not drawn) | 211 to 212
O=C(C=C1NC(c2ccc(F)cc2)=NC1(C(F)(F)F)C(F)(F)F)c1ccc(F)cc1 | 121 to 123
COc1cc(CC(=O)O)ccc1NC(=O)Nc1ccccc1C(F)(F)F | 218 to 220
O=C(O)c1cccc(-c2cccc(Oc3ccc(Cl)cc3Cl)n2)c1 | 244 to 245
CCOCc1nc2c(N)nc3cc(-c4cccnc4)ccc3c2n1CCNS(C)(=O)=O | 233 to 235
Cc1cccc(C)c1N1CCc2c(C)nc3ccccc3c21 | 149 to 152
O=C(NCCC1CCCCC1)NCCC1CCCCC1 | 150 to 152
COc1ccc(-c2cc(=Nc3c(C)cc(C)cc3C)n(C)c(NN)n2)cc1OC | > 300
Cc1cn(-c2ccc(NC(=O)c3ccc(Cl)c(C#Cc4ccc(NC(C)C)nn4)c3)cc2C(F)(F)F)cn1 | 133 to 135
c1cc(OCc2ccc3ccccc3n2)cc(OCc2ccccc2-c2nnn[nH]2)c1 | 166 to 170
N#CC(c1ccccc1Cl)N1CCc2sccc2C1 (stereo not drawn) | 121 to 124
COC1(OC)CCN(Cc2ccccc2)CC1O (stereo not drawn) | 90.1
C=CCOc1ccc2c(=O)c(C)c(-c3ccccc3)oc2c1C(=O)C=Cc1ccccc1 | 145 to 147
CCOC(=O)c1cc2n(C)c3ccc(C)cc3c(=O)n2n1 | 250 to 252
O=C1N(Cc2cncc(F)c2)c2ccccc2C12COc1cc3c(cc12)OCCO3 (stereo not drawn) | 197 to 200
C(=C\c1cc(/C=C/c2ccc3cc[nH]c3c2)n[nH]1)/c1ccc(-c2ccccc2)cc1 | 273 to 276
CC(=Cc1ccc(S)cc1)c1ccc2c(c1)C(C)(C)CCC2(C)C | 97 to 98
CCOC(=O)CC(c1cccnc1)N1C(=O)c2ccccc2C1=O (stereo not drawn) | 72.3 to 72.8
Oc1ccc([C@H]2CC[C@H](CCC3OCCO3)CC2)cc1 | 154
CCC=CCn1c(=O)sc2c(=O)n(C)c(N)nc21 | 184 to 187
CCCCCCC(C(=O)O)n1ccc2cc(-c3ccccc3-c3nn[nH]n3)ccc21 (stereo not drawn) | 105 to 115
O=C(O)Cn1c(=O)c(=O)[nH]c2ccc(Cl)cc21 | > 285

SMILES | melting point [°C]
O=C1NC(=O)C(Cc2ccc3c(c2)CCC(Cc2ccc(OCc4ccccc4)cc2)O3)S1 (stereo not drawn) | 118 to 120
CC(C)(O)c1ccc(-c2cnc3[nH]c(=O)n(CCC4CCOCC4)c3n2)cn1 | 132 to 133
CCCOc1ccc(S(=O)(=O)Nc2ccc3[nH]ncc3c2)cc1-c1nc2cc3nc[nH]c3cc2c(=O)[nH]1 | 261 to 263
COC(=O)C(C)(C)OCc1cc2cc(Cl)ccc2n1S(=O)(=O)c1cc(C)cc(C)c1 | 110 to 112
COCCOc1ccc(/C=C/C(=O)O)c(OCC2CC2)c1 | 118 to 119
CC(=NNc1nc(Cl)c(-c2c(F)cc(F)cc2F)c(NC(C)C(F)(F)F)n1)C(F)(F)F (stereo not drawn) | 205 to 207
CCCCC(=O)c1ccc(-c2ccc(C(=O)Nc3ccc(OC)c(N4CCN(C)CC4)c3)cc2C)cc1 | 65 to 67
O=[N+]([O-])c1cc(C=Cc2ccncc2)cc(O)c1O | > 350
CN(C)Cc1ccc2c(NCc3ccc(NC(=O)c4ccc(F)cc4)cc3)nc(N(C)C)nc2c1 | 94
COCCc1nc2c(N)nc3ccccc3c2n1CCCCNC(=O)c1cnc2ccccc2c1 | 114 to 116
CC(C)CCCC(C)NC(=O)CCC(O)c1ccccc1 (stereo not drawn) | 72 to 89
CCc1ccsc1C(=O)O | 106 to 109
CCOc1c2ccccc2c(C=O)c2ccccc12 | 88 to 90
O=C1c2cccc3c(N4CCCC4)c([N+](=O)[O-])cc(c23)C(=O)N1O | 249 to 252
O=C(NC1CCCc2ccccc21)c1ccc2cnccc2n1 (stereo not drawn) | 164 to 165
COC(=O)COc1cc2c(c3c1c(C(=O)C(N)=O)c(C)n3Cc1ccccc1)CCC2 | 135 to 138
O=c1[nH]c(=O)n(CCCN2CCN(C(c3ccccc3)c3ccccc3)CC2)c2ccccc12 | 261 to 264
CCOC(=O)NCN1C(=O)CN=C(c2ccccc2Cl)c2cc(Cl)ccc21 | 147 to 149
COc1ccc(Nc2nc(-c3ccncc3)nc3ccccc23)cc1Cl | > 220
CCCNC(=O)Nc1ccccc1C(=O)OC | 102
CCCCOc1c(CNC(=O)OC(C)(C)C)n(CC(C)C)c(=O)c2ccc(C(N)=NO)cc12 | 209 to 210
Cc1ccnc(C(c2cc(F)ccc2F)S(=O)(=O)c2ccc(Cl)cc2)c1 (stereo not drawn) | 116 to 117
CC(=O)Oc1cnccc1CCCOc1cccnc1Oc1ccccc1 | 79 to 80
Cc1cccnc1NC(N)=S | 152 to 154

— a melting point compilation (Tetko et al.; mined from patent text by program, amines drawn as free bases though some values may be those of a salt)
